Source: patent US10913711B2, “Potent and selective inhibitors of monoamine transporters; method of making; and use thereof” (priority 2013, dated 2021)

Molecular target: NET (Rattus norvegicus (Rat), UniProt Q9WTR4)
Test: Norepinephrine Transporter Binding Assay ([3H]Nisoxetine, rat frontal cortex membranes)
Settings: not given
Description: Binding affinities of all compounds were evaluated at the DAT, SERT, and NET in rat brain membranes using previously described methods:
Norepinephrine Transporter Binding Assay. Brains from male Sprague-Dawley rats weighing 200-225 g (Taconic Labs, Germantown, N.Y.) were removed, frontal cortex dissected and rapidly frozen. Membranes were prepared by homogenizing tissues in 20 volumes (w/v) of 50 mM Tris containing 120 mM NaCl and 5 mM KCl, (pH 7.4 at 25° C.), using a Brinkman Polytron and centrifuged at 50,000×g for 10 min at 4° C. The resulting pellet was resuspended in buffer, recentrifuged and resuspended in buffer to a concentration of 80 mg/mL. Ligand binding experiments were conducted in assay tubes containing 0.5 mL buffer for 60 min at 0-4° C. […] Nonspecific binding was determined using 1 mM desipramine. Incubations were terminated by rapid filtration through Whatman GF/B filters, presoaked in 0.05% polyethylenimine, using a Brandel R48 filtering manifold (Brandel Instruments Gaithersburg, Md.). The filters were washed twice with 3 mL cold buffer and transferred to scintillation vials. Beckman Ready Value (3.0 mL) was added and the vials were counted using a Beckman 6000 liquid scintillation counter (Beckman Coulter Instruments, Fullerton, Calif.). […] All compounds were tested as racemic mixtures.

Sequence of NET (Q9WTR4 entry or part of it): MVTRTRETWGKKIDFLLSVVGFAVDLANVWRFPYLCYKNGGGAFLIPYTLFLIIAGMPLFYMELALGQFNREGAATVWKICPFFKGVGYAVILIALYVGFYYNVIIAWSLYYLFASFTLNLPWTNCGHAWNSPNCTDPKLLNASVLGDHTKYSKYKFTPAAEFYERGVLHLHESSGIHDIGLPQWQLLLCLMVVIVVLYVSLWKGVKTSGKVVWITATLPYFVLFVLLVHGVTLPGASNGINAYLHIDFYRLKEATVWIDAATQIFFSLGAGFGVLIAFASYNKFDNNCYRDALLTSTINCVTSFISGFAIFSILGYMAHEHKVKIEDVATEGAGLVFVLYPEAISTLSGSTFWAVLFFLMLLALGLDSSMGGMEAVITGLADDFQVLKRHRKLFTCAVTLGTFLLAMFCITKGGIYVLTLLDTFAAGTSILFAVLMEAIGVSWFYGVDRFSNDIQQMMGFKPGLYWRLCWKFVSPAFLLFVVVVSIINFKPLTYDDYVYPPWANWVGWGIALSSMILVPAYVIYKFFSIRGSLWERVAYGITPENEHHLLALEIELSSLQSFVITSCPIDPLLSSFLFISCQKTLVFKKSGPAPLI

| SMILES | Ki [µM] |
| --- | --- |
| [O-][S+](CCNCCCc1ccccc1)C(c1ccc(F)cc1)c1ccc(F)cc1 (stereo not shown) [Compound 5c, N-(2-((bis(4-fluorophenyl)methyl)sulfinyl)ethyl)-3-phenylpropan-1-amine] | 3.28 |
| [O-][S+](CCN1CCN(CC(O)Cc2ccccc2)CC1)C(c1ccccc1)c1ccccc1 (racemic) [Compound 10g, 1-(4-(2-(Benzhydrylsulfinyl)ethyl)piperazin-1-yl)-3-phenylpropan-2-ol] | 25.3 ± 2.04 |
| O=C(CSC(c1ccc(Br)cc1)c1ccc(Br)cc1)NCCCCc1ccccc1 [Compound 2z, 2-((Bis(4-bromophenyl)methyl)thio)-N-(4-phenylbutyl)acetamide] | > 100 |
| Cc1ccc(C(c2ccc(C)cc2)[S+]([O-])CC(N)=O)cc1 (stereo not shown) [Compound 3a, 2-((Di-p-tolylmethyl)sulfinyl)acetamide] | > 100 |
| CCCCNCCSC(c1ccccc1)c1ccccc1 [Compound 4e, N-(2-(benzhydrylthio)ethyl)butan-1-amine] | 11.5 |
| NC(=O)C[S+]([O-])C(c1cccc(Cl)c1)c1cccc(Cl)c1 (stereo not shown) [Compound 3d, 2-((Bis(3-chlorophenyl)methyl)sulfinyl)acetamide] | > 100 |
| C=CCNC(=O)CSC(c1ccccc1)c1ccccc1 [Compound 2j, N-Allyl-2-(benzhydrylthio)acetamide] | > 230 |
| CNC(=O)CSC(c1ccccc1)c1ccccc1 [Compound 2g, 2-(Benzhydrylthio)-N-methylacetamide] | 27.3 |
| [O-][S+](CCN1CCN(CCCc2ccccc2)CC1)C(c1ccccc1)c1ccccc1 (stereo not shown) [Compound 8a, 1-(2-(Benzhydrylsulfinyl)ethyl)-4-(3-phenylpropyl)piperazine] | 5.54 ± 0.808 |
| c1ccc(CCCNCCSC(c2ccccc2)c2ccccc2)cc1 [Compound 4f, N-(2-(benzhydrylthio)ethyl)-3-phenylpropan-1-amine] | 3.91 |
| NC(=O)C[S+]([O-])C(c1ccccc1)c1cccc(Br)c1 (stereo not shown) [Compound 3e, 2-(((3-Bromophenyl)(phenyl)methyl)sulfinyl)acetamide] | > 100 |
| CCCCNC(=O)CSC(c1ccccc1)c1ccccc1 [Compound 2r, 2-(Benzhydrylthio)-N-butylacetamide] | > 0.1 |
| NC(=O)CSC(c1ccccc1)c1ccccc1 [Compound 2a, 2-(Benzhydrylthio)acetamide] | > 100 |
| O=C(CSC(c1ccc(Br)cc1)c1ccc(Br)cc1)NCCCc1ccccc1 [Compound 2x, 2-((Bis(4-bromophenyl)methyl)thio)-N-(3-phenylpropyl)acetamide] | 36.3 |
| CCCCNCC[S+]([O-])C(c1ccccc1)c1ccccc1 (stereo not shown) [Compound 5b, N-(2-(benzhydrylsulfinyl)ethyl)butan-1-amine] | > 140 |
| Fc1ccc(C(SCCN2CCN(CCCc3ccccc3)CC2)c2ccc(F)cc2)cc1 [Compound 7b, 1-(2-((Bis(4-fluorophenyl)methyl)thio)ethyl)-4-(3-phenylpropyl)piperazine] | 1.89 ± 0.116 |
| CC(O)CN1CCN(CC[S+]([O-])C(c2ccccc2)c2ccccc2)CC1 (racemic) [Compound 10a, 1-(4-(2-(Benzhydrylsulfinyl)ethyl)piperazin-1-yl)propan-2-ol] | > 100 |

| SMILES | Ki [µM] |
| --- | --- |
| O=C(C[S+]([O-])C(c1ccc(Br)cc1)c1ccc(Br)cc1)NCCCc1ccccc1 (stereo not shown) [Compound 3g, 2-(Bis(4-bromophenyl)methylsulfinyl)-N-(3-phenylpropyl)acetamide] | > 100 |
| CCCNC(=O)CSC(c1ccc(Br)cc1)c1ccc(Br)cc1 [Compound 2n, 2-((Bis(4-bromophenyl)methyl)thio)-N-propylacetamide] | 10.6 |
| O=C(CSC(c1ccccc1)c1ccccc1)NCC1CC1 [Compound 2o, 2-(Benzhydrylthio)-N-(cyclopropylmethyl)acetamide] | > 100 |
| OC(Cc1ccccc1)CN1CCN(CCSC(c2ccc(F)cc2)c2ccc(F)cc2)CC1 (racemic) [Compound 9j, 1-(4-(2-((Bis(4-fluorophenyl)methyl)thio)ethyl)piperazin-1-yl)-3-phenylpropan-2-ol] | 1.95 ± 0.227 |
| OC(Cc1ccccc1)CN1CCN(CCSC(c2ccccc2)c2ccccc2)CC1 (racemic) [Compound 9g, 1-(4-(2-(Benzhydrylthio)ethyl)piperazin-1-yl)-3-phenylpropan-2-ol] | 1.43 ± 0.118 |
| [O-][S+](CCNCCCc1ccccc1)C(c1ccc(Cl)cc1)c1ccc(Cl)cc1 (stereo not shown) [Compound 5d, N-(2-((bis(4-chlorophenyl)methyl)sulfinyl)ethyl)-3-phenylpropan-1-amine] | 5.8 |
| CC(O)CN1CCN(CCSC(c2ccccc2)c2ccccc2)CC1 (racemic) [Compound 9a, 1-(4-(2-(Benzhydrylthio)ethyl)piperazin-1-yl)propan-2-ol] | 44.5 ± 2.4 |
| O=C(CSC(c1ccc(Br)cc1)c1ccc(Br)cc1)NCC1CC1 [Compound 2q, 2-((Bis(4-bromophenyl)methyl)thio)-N-(cyclopropylmethyl)acetamide] | > 100 |
| CNC(=O)C[S+]([O-])C(c1ccccc1)c1ccccc1 (stereo not shown) [Compound 3f, 2-(Benzhydrylsulfinyl)-N-methylacetamide] | > 100 |
| CCCNC(=O)CSC(c1ccc(F)cc1)c1ccc(F)cc1 [Compound 2l, 2-((Bis(4-fluorophenyl)methyl)thio)-N-propylacetamide] | 61.7 |
| CCCNC(=O)CSC(c1ccccc1)c1ccccc1 [Compound 2k, 2-(Benzhydrylthio)-N-propylacetamide] | 55.9 |
| [O-][S+](CCN1CCN(CCCc2ccccc2)CC1)C(c1ccc(F)cc1)c1ccc(F)cc1 (stereo not shown) [Compound 8b, 1-(2-((Bis(4-fluorophenyl)methyl)sulfinyl)ethyl)-4-(3-phenylpropyl)piperazine] | 4.28 ± 0.343 |
| NC(=O)C[S+]([O-])C(c1cccc(F)c1)c1cccc(F)c1 (stereo not shown) [Compound 3c, 2-((Bis(3-fluorophenyl)methyl)sulfinyl)acetamide] | > 100 |
| O=C(CSC(c1ccc(F)cc1)c1ccc(F)cc1)NCC1CC1 [Compound 2p, 2-((Bis(4-fluorophenyl)methyl)thio)-N-(cyclopropylmethyl)acetamide] | 57.6 |
| O=C(CSC(c1ccc(F)cc1)c1ccc(F)cc1)NCCCc1ccccc1 [Compound 2v, 2-((Bis(4-fluorophenyl)methyl)thio)-N-(3-phenylpropyl)acetamide] | > 100 |
| NC(=O)CSC(c1cccc(Cl)c1)c1cccc(Cl)c1 [Compound 2e, 2-((Bis(3-chlorophenyl)methyl)thio)acetamide] | 34 |
| CC(O)CN1CCN(CC[S+]([O-])C(c2ccc(F)cc2)c2ccc(F)cc2)CC1 (racemic) [Compound 10d, 1-(4-(2-((Bis(4-fluorophenyl)methyl)sulfinyl)ethyl)piperazin-1-yl)propan-2-ol] | > 100 |

Same assay, conditions: Table 1, thioacetamide and sulfinylacetamide analogs; rat brain membranes; racemic mixtures

| SMILES | NET Ki (nM) ± S.E.M. |
| --- | --- |
| O=C(CSC(c1ccc(Br)cc1)c1ccc(Br)cc1)NCCCCc1ccccc1 [Compound 2z, 2-((Bis(4-bromophenyl)methyl)thio)-N-(4-phenylbutyl)acetamide] | no displacement |

Same assay, conditions: Table 5, piperazinyl derivatives; rat brain membranes; read-out: NET Ki ± SEM

| SMILES | Ki [µM] |
| --- | --- |
| c1ccc(CCCN2CCN(CCSC(c3ccccc3)c3ccccc3)CC2)cc1 [Compound 7a, 1-(2-(Benzhydrylthio)ethyl)-4-(3-phenylpropyl)piperazine] | 0.988 ± 0.0228 |

Molecular target: human DAT A480T mutant (Homo sapiens (Human), UniProt Q01959, A480T)
Test: [3H]DA uptake inhibition in intact COS7 cells, hDAT A480T
Settings: read-out: hDAT A480T Ki [S.E. interval], [3H]DA uptake inhibition potency

Sequence of human DAT A480T mutant (Q01959 whole entry A480T): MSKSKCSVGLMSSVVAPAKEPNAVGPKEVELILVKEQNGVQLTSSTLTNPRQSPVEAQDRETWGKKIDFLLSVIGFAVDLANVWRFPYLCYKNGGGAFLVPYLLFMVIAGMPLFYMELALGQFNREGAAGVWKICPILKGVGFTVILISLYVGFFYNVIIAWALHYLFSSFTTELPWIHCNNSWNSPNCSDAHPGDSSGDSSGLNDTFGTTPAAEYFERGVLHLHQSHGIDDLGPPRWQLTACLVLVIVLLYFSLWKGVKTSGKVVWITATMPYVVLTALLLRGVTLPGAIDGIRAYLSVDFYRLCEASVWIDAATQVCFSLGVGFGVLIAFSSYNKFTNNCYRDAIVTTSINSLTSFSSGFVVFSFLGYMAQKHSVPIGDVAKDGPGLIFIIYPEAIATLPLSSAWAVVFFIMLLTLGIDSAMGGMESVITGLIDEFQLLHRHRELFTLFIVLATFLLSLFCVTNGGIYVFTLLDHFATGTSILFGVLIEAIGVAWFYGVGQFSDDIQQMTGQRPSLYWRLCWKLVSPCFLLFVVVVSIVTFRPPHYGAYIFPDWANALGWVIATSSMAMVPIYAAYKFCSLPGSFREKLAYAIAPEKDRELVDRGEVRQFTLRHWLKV

| SMILES | Ki [µM] |
| --- | --- |
| CNC(=O)CSC(c1ccccc1)c1ccccc1 [Compound 2g, 2-(Benzhydrylthio)-N-methylacetamide] | 3.6 |

Molecular target: human SERT T497A mutant (Homo sapiens (Human), UniProt P31645, T497A)
Test: not given
Type: cell-based
Settings: read-out: hSERT T497A KM
From the text: (§1) Molecular Pharmacology Site-directed mutagenesis: Synthetic cDNA encoding the human DAT (synDAT) were subcloned into pcDNA3 (Invitrogen, Carlsbad, Calif.). cDNA encoding the human SERT (hSERT) was cloned into the pUbilz expression vector. Mutations herein were generated by the QuickChange method (adapted from Stratagene, La Jolla, Calif.) and confirmed by restriction enzyme mapping and DNA sequencing. Positive clones were amplified by transformation into XL1 blue competent cells (Stratagene) and positive colony picked and grown in LB media over night at 37° C. in an orbital incubator (Infors) @ 200 rpm. Plasmids were harvested using the maxi prep kit provided by Qiagen according to the manufacturer's manual.
(§2) Uptake assays were performed essentially as previously described to Cha, J. H.; Zou, M. F.; Adkins, E. M.; Rasmussen, S. G.; Loland, C. J.; Schoenenberger, B.; Gether, U.; Newman, A. H. Rhodamine-Labeled 2beta-Carbomethoxy-3beta-(3,4-Dichlorophenyl)Tropane Analogues as High-Affinity Fluorescent Probes for the Dopamine Transporter. […] Transiently transfected COS-7 cells were plated in 12-well (3*10^5 cells/well) or 24-well dishes (10^5 cells/well) coated with poly-ornithine to achieve an uptake level of no more than 10% of total added radioligand. The uptake assays were carried out 2 days after transfection. Prior to the experiment, the cells were washed once in 500 μl of uptake buffer buffer (25 mM 4-(2-hydroxyethyl)-1-piperazineethanesulfonic acid (HEPES), 130 mM NaCl, 5.4 mM KCl, 1.2 mM CaCl2, 1.2 mM MgSO4, 1 mM L-ascorbic acid, 5 mM D-glucose, and 1 μM of the catechol-O-methyltransferase inhibitor Ro 41-0960 (Sigma), pH 7.4) at room temperature (RT). […] All samples were transferred to 24-well counting plates and 500 μL (or 600 μL) of Opti-phase Hi Safe 3 scintillation fluid (Perkin Elmer) was added followed by counting of the plates in a Wallac Tri-Lux β-scintillation counter (Perkin Elmer). Nonspecific uptake was determined in the presence of 5 μM paroxetine for hSERT and 50 μM nomifensine for hDAT expressing cells. All determinations were performed in triplicate.

| SMILES | Km [µM] |
| --- | --- |
| NCCc1c[nH]c2ccc(O)cc12 [Compound 5-HT, 5-hydroxytryptamine, reference compound] | 1.09 |

Molecular target: human SERT wild type (Homo sapiens (Human), UniProt P31645)
Test: not given
Type: cell-based
Settings: read-out: hSERT WT KM
From the text: as §1, §2

| SMILES | Km [µM] |
| --- | --- |
| NCCc1c[nH]c2ccc(O)cc12 [Compound 5-HT, 5-hydroxytryptamine, reference compound] | 0.52 |

Molecular target: human DAT wild type (Homo sapiens (Human), UniProt Q01959)
Test: [3H]DA uptake inhibition in intact COS7 cells, hDAT WT
Type: cell-based
Settings: [3H]DA uptake inhibition potency, read-out: hDAT WT Ki [S.E. interval]

| SMILES | Ki [µM] |
| --- | --- |
| CNC(=O)CSC(c1ccccc1)c1ccccc1 [Compound 2g, 2-(Benzhydrylthio)-N-methylacetamide] | 5.5 |
